Measurements: the supplement of paper PMC11061612

Legend:
Test in all cases: Bliss excess, mean over the matrix (fraction); higher = more synergy
[1] = test system: ESS-1 (Other Solid Carcinomas)
Outline: (§1)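 After 24 hours at 37°C and 5% CO2 in 1536-well plates, cells in DMEM/F12 or RPMI plus 10% FBS received two-drug dose matrices for 72 hours. Viability came from CellTiter-Glo 2.0 luminescence and was scaled as inhibition, anchored at 0 by vehicle wells and at 1 by blank wells. Combination Emax is taken as the second-highest inhibition in the matrix, and Bliss excess as the observed combination effect less EA + EB − EA·EB, with EA and EB the single-agent effects.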

[2] = test system: SW1573 (Lung Adenocarcinoma)
Outline: as §1

[3] = test system: KS-1 (Glioblastoma)
Outline: as §1

[4] = test system: KMRC-20 (Kidney Carcinoma)
Outline: as §1

[5] = test system: CAL-33 (Oral Cavity Carcinoma)
Outline: as §1

[6] = test system: NCI-H2722 (Mesothelioma)
Outline: as §1

[7] = test system: EW-11 (Ewing's Sarcoma)
Outline: as §1

[8] = test system: FTC-133 (Thyroid Gland Carcinoma)
Outline: as §1

[9] = test system: KYAE-1 (Esophageal Adenocarcinoma)
Outline: as §1

[10] = test system: GAMG (Glioblastoma)
Outline: as §1

[11] = test system: LOXIMVI (Melanoma)
Outline: as §1

[12] = test system: SAS (Oral Cavity Carcinoma)
Outline: as §1

[13] = test system: SNU-16 (Gastric Carcinoma)
Outline: as §1

[14] = test system: LNZTA3WT4 (Low Grade Glioma)
Outline: as §1

[15] = test system: OE21 (Esophageal Squamous Cell Carcinoma)
Outline: as §1

[16] = test system: YAPC (Pancreatic Carcinoma)
Outline: as §1

[17] = test system: A673 (Ewing's Sarcoma)
Outline: as §1

[18] = test system: MPP-89 (Mesothelioma)
Outline: as §1

[19] = test system: TGBC1TKB (Biliary Tract Carcinoma)
Outline: as §1

[20] = test system: WSU-NHL (B-Cell Non-Hodgkin's Lymphoma)
Outline: as §1

`Cc1cc2ncnn2cc1Nc1ncc2c(n1)n(C1CCOCC1)c(=O)n2C` [AZD7648] + CN(C)CCCOc1ccc(-c2ccc3ncc4c(c3c2)n(C2CCOCC2)c(=O)n4C)cn1 [AZD0156] (first compound max 10 µM, 7x7, partner max 1 µM) showed a Bliss excess [1] of 0.0364, a Bliss excess [2] of -0.0114 and a Bliss excess [3] of -0.068. The Bliss excess [4] was -0.0232, the Bliss excess [5] was 0.0227 and the Bliss excess [6] was -0.0023. For the same compound, the Bliss excess [7] was -0.0549, the Bliss excess [8] was 0.0239 and the Bliss excess [9] was 0.0007. It also gave a Bliss excess [10] of -0.058, a Bliss excess [11] of -0.0141 and a Bliss excess [12] of 0.0623. For the same compound, the Bliss excess [13] was 0.0214, the Bliss excess [14] was 0.0113 and the Bliss excess [15] was -0.0629. The Bliss excess [16] was -0.0126, the Bliss excess [17] was -0.0142 and the Bliss excess [18] was 0.0139. It also gave a Bliss excess [19] of -0.027 and a Bliss excess [20] of -0.0531.

`Cc1cc2ncnn2cc1Nc1ncc2c(n1)n(C1CCOCC1)c(=O)n2C` [AZD7648] + C[C@@H]1COCCN1C2=NC(=NC(=C2)C3(CC3)[S@](=N)(=O)C)C4=C5C=CNC5=NC=C4 [AZD6738] (first compound max 10 µM, 7x7, partner max 10 µM) was tested, and the Bliss excess [1] was -0.0161, the Bliss excess [2] was 0.0293 and the Bliss excess [3] was -0.0011. The Bliss excess [4] was -0.0207, the Bliss excess [5] was 0.0013 and the Bliss excess [6] was -0.0163. For the same compound, the Bliss excess [7] was 0.0104, the Bliss excess [8] was -0.0369 and the Bliss excess [9] was 0.0399. For the same compound, the Bliss excess [10] was 0.0064, the Bliss excess [11] was -0.0019 and the Bliss excess [12] was 0.0211. It also gave a Bliss excess [13] of -0.009, a Bliss excess [14] of -0.0165 and a Bliss excess [15] of -0.0793. The Bliss excess [16] was 0.0058, the Bliss excess [17] was -0.0295 and the Bliss excess [18] was -0.0034. The Bliss excess [19] was -0.002 and the Bliss excess [20] was -0.0181.

In the case of `Cc1cc2ncnn2cc1Nc1ncc2c(n1)n(C1CCOCC1)c(=O)n2C` [AZD7648] + O=C(c1cc(Cc2n[nH]c(=O)c3ccccc23)ccc1F)N1CCN(C(=O)C2CC2)CC1 [Olaparib] (first compound max 10 µM, 7x7, partner max 10 µM), the Bliss excess [1] was -0.0721, the Bliss excess [2] was -0.0158 and the Bliss excess [3] was -0.0355. It also gave a Bliss excess [4] of -0.0594, a Bliss excess [5] of -0.0237 and a Bliss excess [6] of -0.0445. The Bliss excess [7] was -0.0826, the Bliss excess [8] was -0.0306 and the Bliss excess [9] was -0.0362. The Bliss excess [10] was -0.0608, the Bliss excess [11] was -0.0577 and the Bliss excess [12] was -0.0245. The Bliss excess [13] was -0.0301, the Bliss excess [14] was -0.0341 and the Bliss excess [15] was -0.088. It also gave a Bliss excess [16] of -0.0521, a Bliss excess [17] of -0.015 and a Bliss excess [18] of -0.0163. It also gave a Bliss excess [19] of -0.0649 and a Bliss excess [20] of -0.057.

In the case of `Cc1nc(Nc2ncc(C(=O)Nc3c(C)cccc3Cl)s2)cc(N2CCN(CCO)CC2)n1` [Dasatinib] + CC(=O)Nc1cccc(-n2c(=O)n(C3CC3)c(=O)c3c(Nc4ccc(I)cc4F)n(C)c(=O)c(C)c32)c1 [Trametinib] (first compound max 2 µM, 7x7, partner max 1 µM), the Bliss excess [1] was -0.0417, the Bliss excess [2] was -0.0715 and the Bliss excess [3] was -0.0429. It also gave a Bliss excess [4] of -0.0518, a Bliss excess [5] of -0.0189 and a Bliss excess [6] of -0.0321. It also gave a Bliss excess [7] of -0.0404, a Bliss excess [8] of -0.0878 and a Bliss excess [9] of -0.0114. For the same compound, the Bliss excess [10] was -0.018, the Bliss excess [11] was 0.0175 and the Bliss excess [12] was 0.0083. For the same compound, the Bliss excess [13] was -0.0261, the Bliss excess [14] was -0.0794 and the Bliss excess [15] was -0.0561. For the same compound, the Bliss excess [16] was 0.0605, the Bliss excess [17] was -0.075 and the Bliss excess [18] was -0.0661. The Bliss excess [19] was 0.123 and the Bliss excess [20] was 0.0024.

For `COc1cc2ncnc(Nc3ccc(F)c(Cl)c3)c2cc1OCCCN1CCOCC1` [Gefitinib] + CC(C)n1c(=O)n(C)c2cnc3cc(F)c(-c4ccc(OCCCN5CCCCC5)nc4)cc3c21 [AZD1390] (first compound max 10 µM, 7x7, partner max 0.3 µM), the Bliss excess [1] was -0.0518, the Bliss excess [2] was -0.0726 and the Bliss excess [3] was -0.0599. The Bliss excess [4] was -0.056, the Bliss excess [5] was -0.0366 and the Bliss excess [6] was -0.0662. The Bliss excess [7] was -0.0563, the Bliss excess [8] was -0.0752 and the Bliss excess [9] was -0.0421. The Bliss excess [10] was -0.0443, the Bliss excess [11] was -0.0384 and the Bliss excess [12] was -0.0454. The Bliss excess [13] was -0.0183, the Bliss excess [14] was -0.0393 and the Bliss excess [15] was -0.0696. The Bliss excess [16] was -0.0233, the Bliss excess [17] was -0.047 and the Bliss excess [18] was -0.05. For the same compound, the Bliss excess [19] was -0.0264 and the Bliss excess [20] was -0.0499.

In the case of `COc1cc2c(cc1OCCCCCOc1cc3c(cc1OC)C(=O)N1C=C(C)C[C@H]1C=N3)N=C[C@@H]1CC(C)=CN1C2=O` [SG3199] + O=C(c1cc(Cc2n[nH]c(=O)c3ccccc23)ccc1F)N1CCN(C(=O)C2CC2)CC1 [Olaparib] (first compound max 0.001 µM, 7x7, partner max 10 µM), the Bliss excess [1] was -0.0118, the Bliss excess [2] was -0.0312 and the Bliss excess [3] was -0.0482. The Bliss excess [4] was -0.0192, the Bliss excess [5] was -0.0198 and the Bliss excess [6] was -0.0459. For the same compound, the Bliss excess [7] was -0.051, the Bliss excess [8] was -0.013 and the Bliss excess [9] was -0.0195. It also gave a Bliss excess [10] of -0.0494, a Bliss excess [11] of -0.0599 and a Bliss excess [12] of -0.03. It also gave a Bliss excess [13] of -0.0598, a Bliss excess [14] of -0.0444 and a Bliss excess [15] of -0.0537. The Bliss excess [16] was -0.0534, the Bliss excess [17] was -0.0556 and the Bliss excess [18] was -0.0391. For the same compound, the Bliss excess [19] was -0.0438 and the Bliss excess [20] was -0.0156.

Compound `C[C@@H](c1ccc2nccn2c1)n1nnc2ncc(-c3cnn(C)c3)nc21` [Savolitinib] + CC1(C)CCC(CN2CCN(c3ccc(C(=O)NS(=O)(=O)c4ccc(NCC5CCOCC5)c([N+](=O)[O-])c4)c(Oc4cnc5[nH]ccc5c4)c3)CC2)=C(c2ccc(Cl)cc2)C1 [Venetoclax] (first compound max 1 µM, 7x7, partner max 1 µM) has a Bliss excess [1] of -0.0241, a Bliss excess [2] of -0.0736 and a Bliss excess [3] of -0.0476. It also gave a Bliss excess [4] of -0.0524, a Bliss excess [5] of -0.0211 and a Bliss excess [6] of -0.0617. For the same compound, the Bliss excess [7] was -0.0096, the Bliss excess [8] was -0.0611 and the Bliss excess [9] was -0.014. The Bliss excess [10] was -0.0257, the Bliss excess [11] was -0.0355 and the Bliss excess [12] was -0.0388. For the same compound, the Bliss excess [13] was -0.0188, the Bliss excess [14] was -0.0907 and the Bliss excess [15] was -0.0443. The Bliss excess [16] was -0.0232, the Bliss excess [17] was -0.0673 and the Bliss excess [18] was -0.0566. It also gave a Bliss excess [19] of -0.0122 and a Bliss excess [20] of -0.0193.

`C[C@@H](c1ccc2nccn2c1)n1nnc2ncc(-c3cnn(C)c3)nc21` [Savolitinib] + Cc1c2c(nn1C)CSCc1cc(n(C)n1)CSc1cc(c3ccccc3c1)OCCCc1c(C(=O)O)n(C)c3c-2c(Cl)ccc13 [AZD5991] (first compound max 1 µM, 7x7, partner max 1 µM) was tested, and the Bliss excess [1] was -0.0432, the Bliss excess [2] was -0.0475 and the Bliss excess [3] was -0.0509. The Bliss excess [4] was -0.0733, the Bliss excess [5] was -0.0423 and the Bliss excess [6] was -0.0088. It also gave a Bliss excess [7] of 0.0361, a Bliss excess [8] of -0.0511 and a Bliss excess [9] of 0.0163. It also gave a Bliss excess [10] of -0.0209, a Bliss excess [11] of -0.0096 and a Bliss excess [12] of -0.0341. The Bliss excess [13] was -0.047, the Bliss excess [14] was -0.0247 and the Bliss excess [15] was -0.0479. For the same compound, the Bliss excess [16] was -0.0425, the Bliss excess [17] was 0.0471 and the Bliss excess [18] was -0.0423. For the same compound, the Bliss excess [19] was -0.0238 and the Bliss excess [20] was -0.0467.
